Literature values as cited in patent US11446359B2, “Systems and methods for cardiac plexus neuromodulation” (Tulavi Therapeutics, Inc., priority 2015, dated 2022).

Key:
[1] = 2.5 ml 0.25% with epinephrine
[2] = system: thoracic sympathetic ganglia and rami
asthma [3] = system: asthma
lumbar chain = details: remaining 4 required a second block
asthma [4] = system: asthma; remark: listed apart in the source
axons and Schwann cells = details: in vivo
[5] = in vivo

For `C[C@H](CCCC(C)(C)O)[C@H]1CC[C@H]2[C@@H]3CC=C4C[C@@H](O)CC[C@]4(C)[C@H]3CC[C@]12C` [25-OH-cholesterol], the “relative potency among cholesterol oxides” value (sympathetic ganglia) is given as “most potent”.

In the case of `CCCCN1CCCCC1C(=O)Nc1c(C)cccc1C` (centres unmarked) [Marcaine], the duration of relief [1] is given as 1 to 10 days and the “duration of relief, median” value [1] is given as 4 days.

In the case of `CCO` [absolute alcohol, ethanol], the “patients with complete relief” value ([2]; 23 cases) is listed as 75%, the “cases with cure or dramatic improvement in asthma” value ([2]; severe intractable asthma cases (Levin 1935)) is listed as 75% and the “patients with complete disappearance of asthma” value (asthma [3]; case studies, n=5, 2.5 cc absolute alcohol per injection) is listed as 100%. The “cases with complete relief” value (asthma [3]; further work, 13/18 cases) was 72%, the “patients that required one injection only” value (lumbar chain) was 19/23 and the “patients free of asthma” value (asthma [4]; case studies, n=3, 1 cc absolute alcohol) was 100%. The “cases that obtained complete relief” value (asthma [4]; further cases) was 80%.

For `Oc1ccccc1` [phenol], the “time at which regeneration in the periphery may begin” value (axons and Schwann cells) is listed as 2 weeks, the bilateral sensory blockade [5] is listed as 1.3% and the intrathecal injection observed [5] is listed as 0.52%. For the same molecule, the transient hypertension [5] was 4.6%.
